Consider four molecules from US11591323B2, “Muscarinic agonists as non-steroidal and non-opioid analgesics and methods of use thereof” (Barry University, priority 2019, dated 2023).

Where two headings read alike, the source gives them in different places.

The target in this assay is T1, M5 muscarinic receptor (Homo sapiens, UniProt P08912).
T1 sequence (P08912 1-532): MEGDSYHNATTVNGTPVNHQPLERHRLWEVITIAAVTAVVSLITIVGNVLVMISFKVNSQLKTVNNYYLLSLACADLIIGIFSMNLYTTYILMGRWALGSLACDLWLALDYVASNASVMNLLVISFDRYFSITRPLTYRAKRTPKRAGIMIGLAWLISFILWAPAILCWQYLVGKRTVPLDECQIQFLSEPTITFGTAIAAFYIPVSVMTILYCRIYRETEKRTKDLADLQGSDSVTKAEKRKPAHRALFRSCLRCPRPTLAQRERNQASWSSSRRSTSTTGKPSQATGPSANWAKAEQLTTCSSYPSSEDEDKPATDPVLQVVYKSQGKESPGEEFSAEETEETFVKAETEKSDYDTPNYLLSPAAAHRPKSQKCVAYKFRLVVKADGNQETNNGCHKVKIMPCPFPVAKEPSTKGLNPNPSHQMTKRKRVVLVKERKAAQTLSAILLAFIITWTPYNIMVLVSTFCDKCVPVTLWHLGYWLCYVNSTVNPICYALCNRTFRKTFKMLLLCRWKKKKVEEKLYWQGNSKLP
The assay is described as follows: inhibition of forskolin-stimulated cAMP, M5 CHO cells (M5Gi). It is filed as cell-based. Also on record: host or cells: CHO cells, stably transfected. The note with it: for effect on forskolin-stimulated production of cAMP: M5, non-preferential response, in words; for Δlog(τ/KA): Table 8, to carbachol; for Emax: CHO; for RAi: Table 8, relative to carbachol; for Gi over Gq+G15 bias: at M5 receptors. The protocol:
Since activation of phospholipase C (PLC) via M2 and M4 receptors is weak, cells were transferred with G15 G-protein to facilitate coupling.
To determine level of cAMP, cells in suspension were pre-incubated for 1 h with 0.4 μM [^3H]adenine, washed, and incubated for 10 min in the presence of isobutylmethylxanthine and 10 μM forskolin. […] Incubation was ended by addition of 0.2 ml of 2.5 M HCl to the samples. Samples were applied to alumina columns (1.5 g of alumina per column), washed with 2 ml ammonium acetate (pH=7.0) and eluted from columns with 4 ml ammonium acetate and measured by liquid scintillation spectrometry. […] The incubation was stopped by addition of 0.5 ml of chloroform methanol HCl mixture (2:1:0.1). After separation of water and organic phases, 0.6 ml of water phase was applied to Dowex columns (1.5 g of Dowex per column), washed by 20 ml of 60 mM ammonium formate/5 mM sodium borate buffer and eluted from columns with 4 ml of 1M ammonium formate/0.1 formic acid buffer and measured by liquid scintillation spectrometry.
Measurements of the production of cAMP and inositol phosphates: Levels of second messengers cAMP and inositol phosphates were determined in radiochemical chromatography assays as described previously. To determine level of cAMP, cells in suspension were pre-incubated for 1 h with 0.4 μM [^3H]adenine, washed, and incubated for 10 min in the presence of isobutylmethylxanthine and 10 μM forskolin. […] Incubation was ended by addition of 0.2 ml of 2.5 M HCl to the samples. Samples were applied to alumina columns (1.5 g of alumina per column), washed with 2 ml ammonium acetate (pH=7.0) and eluted from columns with 4 ml ammonium acetate and measured by liquid scintillation spectrometry. […] For this purpose, new CHO cell lines stably expressing promiscuous G15 G-protein and M2 or M4 receptor were generated by transfection with pCMV/hygro vector and hygromycin selection. To determine the rate of formation of inositol phosphates IPX, suspended cells were pre-incubated with 0.1 μM [^3H]myo-inositol for 60 min, washed, and incubated with 10 mM LiCl for 15 min. […] The incubation was stopped by addition of 0.5 ml of chloroform methanol HCl mixture (2:1:0.1). After separation of water and organic phases, 0.6 ml of water phase was applied to Dowex columns (1.5 g of Dowex per column), washed by 20 ml of 60 mM ammonium formate/5 mM sodium borate buffer and eluted from columns with 4 ml of 1M ammonium formate/0.1 formic acid buffer and measured by liquid scintillation spectrometry.
For bi-phasic response, curves were inhibitory and stimulatory phase were fitted separately. Operational Model of Functional Agonism
[formula] where y is functional response at concentration of tested compound x, EMAX is maximal response of the system, KA is equilibrium dissociation constant and nH is slope factor. Eq. 5 was fitted to data from functional experiments. Eq. 5 was fitted to data by the two-step procedure described earlier. […] In the second step, Eq. 5 with EMAX fixed to the value determined in the first step was fitted to individual experimental data sets. Relative Intrinsic Activity
Muscarinic receptors are also able to stimulate non-preferential signalling pathways.

[1] abbreviates: M5Gi (↓cAMP), Table 8, read-out: E′MAX.
Setting [2] is: M5Gi (↓cAMP), Table 8, read-out: pEC50 (converted).
The mark [3] stands for this setting: M5Gi (↓cAMP), Table 8, read-out: pKA (converted).

Consider `C[N+](C)(C)CCOC(N)=O` [carbachol, reference compound], for which the “effect on forskolin-stimulated production of cAMP” value (“effect” for short) is recorded as “inhibited forskolin-stimulated production of cAMP at nanomolar concentrations”. Moreover, for the setting “M5Gi (↓cAMP), Table 8”, the “E′MAX” value is 18 ± 1 % of inhibition and the τ came to 0.24 ± 0.03. In addition, the “Δlog(τ/KA)” value (M5Gi (↓cAMP)) is on record as 0.
On to `C[N+]1(Cc2cccs2)CC=CCC1.[I-]` (centres unmarked) [Compound 7A, 1-methyl-1-[(thiophen-2-yl)methyl]-1,2,3,6-tetrahydropyridin-1-ium iodide], for which the “effect” value is reported as “inhibited cAMP production” and the “Gi over Gq+G15 bias” value is around 30 fold. Under setting [1], the Emax is 34 ± 2%. This molecule also registered a τ (M5Gi (↓cAMP), Table 8) of 0.59 ± 0.02. For the setting “M5Gi (↓cAMP)”, the RAi was 0.026 ± 0.003 and the “Δlog(τ/KA)” value was determined as 1.67 ± 0.18. Moreover, the EC50 under setting [2] was 31.6 µM. Moreover, the Kd under setting [3] was 50.1 µM.
The molecule `O=C1CCCN1CC#CCN1CCCC1` [oxotremorine, reference compound] had an EC50 of 0.0708 µM, a Kd of 0.1 µM and an Emax of 22 ± 2%. For the setting “M5Gi (↓cAMP), Table 8”, the τ was determined as 0.31 ± 0.03. Also, where the note is “M5Gi (↓cAMP)”, the RAi turned out to be 6.44 ± 0.67 and the “Δlog(τ/KA)” value is given as −0.79 ± 0.06.
As to `C1=CCN(Cc2cccs2)CC1.Cl` [Compound 6A, 1-[(thiophen-2-yl)methyl]-1,2,3,6-tetrahydropyridin-1-ium chloride], the “effect” value is “inhibited cAMP production” and the “Gi over Gq+G15 bias” value is recorded as “about 10 fold”. The Emax under setting [1] turned out to be 22 ± 2%. The same molecule registered a τ (M5Gi (↓cAMP), Table 8) of 0.31 ± 0.04. Under “M5Gi (↓cAMP)”, the RAi was determined as 0.021 ± 0.002 and the “Δlog(τ/KA)” value is on record as 1.70 ± 0.21. Moreover, the EC50 under setting [2] was 21.9 µM. In addition, the Kd under setting [3] is 31.6 µM.
